Laboratory results from US5446129A, “Peptide or its salt for autoimmune hyperthyroidism containing it” (Ishihara Sangyo Kaisha Ltd., priority 1990, dated 1995).
No end group written: not given here.

Test system: production of cAMP under stimulation by TSAb
Test: Test Example 2: cAMP produced under stimulation by TSAb in FRTL5 cells (96-well)
Assay type: cell-based, rat
Conditions: TSAb positive IgG
Protocol: Using rat established thyroid cell line FRTL5, the influence of the peptide over the production of cAMP under stimulation by TSAb, was examined in accordance with the method of S. Kosugi et al. (Endocrinology, Vol. 125, No. 1, p 410 (1989)). The method will be described as follows.
Preincubated FRTL5 cells (1.5×10^5 cells/ml) were transferred to a multiplate having 96 wells in an amount of 100 μl per well and incubated in a CO2 incubator for 6 days while changing the medium (having TSH excluded). Then, the medium was removed and the cells were rinsed and subjected to the test. 40 μl of a solution of IgG from TSAb positive serum and 10 μl of a solution containing 0, 15 or 30 μg of the desired peptide were reacted in a test tube at 4° C. for 20 hours. To this reaction solution, 5 μl of a 0.5 mM solution of 3-isobutyl-1-methylxanthine was added, and 50 μl of this reaction solution was added to the previously prepared FRTL5 cells, followed by incubation at 37° C. for two hours.
On the other hand, as control, a test was conducted in the same manner using a normal serum.
With respect to each sample, the quantitative analysis of cAMP produced under stimulation by TSAb was conducted by means of a commercially available cAMP-radioimmunoassay kit (1-VQ12, manufactured by Eiken Kagaku Corporation).

In the case of EQEDEIIGFG [Peptide No. 8], the Inhibition rate (15 μg/well peptide) is reported as 54%, the cAMP (15 μg/well peptide) is reported as 3.2 nM and the Inhibition rate (30 μg/well peptide) is reported as 76%. It also gave a cAMP (30 μg/well peptide) of 1.8 nM.
